According to patent publication US9932288B2, “Chemical compound for inhibition of SHP2 function and for use as an anti-cancer agent” (West Virginia University, priority 2015, dated 2018):
Several values for one entry are separate records, joined by “and”; a condition that tells them apart may be missing. Equal entries are not always repeated.

Assays:
[1] = biological target: T1, PTP domain of SHP2 fused to GST (Homo sapiens, UniProt Q06124); experiment: phosphatase assay with DiFMUP substrate, GST-PTP of SHP2; type: biochemical
T1 construct: The PTP domains of SHP2 and SHP1 fused to glutathione-S-transferase (GST-PTPs) were expressed in E. coli; GST (N); made in house; host or cells: E. coli
T1 sequence (Q06124 247-517 limits assumed): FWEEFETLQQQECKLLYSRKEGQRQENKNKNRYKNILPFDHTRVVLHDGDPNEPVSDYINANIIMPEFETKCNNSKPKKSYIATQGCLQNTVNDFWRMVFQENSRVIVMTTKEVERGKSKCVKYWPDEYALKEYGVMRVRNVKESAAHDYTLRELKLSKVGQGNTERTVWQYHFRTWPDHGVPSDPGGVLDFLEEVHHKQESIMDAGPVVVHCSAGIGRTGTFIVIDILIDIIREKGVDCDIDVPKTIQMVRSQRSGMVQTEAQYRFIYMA
Protocol: (§1) The effect of CNBD on the SHP2 phosphatase activity was tested using the artificial substrate DiFMUP (6,8-difluoro-4-methylumbelliferyl) at a concentration of 20 μM, which is commonly used in phosphatase assays. CNBDA concentrations of 1.94 mM, 194 μM, 97 μM, 48.5 μM, 24.25 μM, 19.4 μM, 12.9 μM, and 1.94 μM in water were used in the analysis. The PTP domains of SHP2 and SHP1 fused to glutathione-S-transferase (GST-PTPs) were expressed in E. coli using a standard protein expression protocol and purified on glutathione sepharose beads as recommended by the manufacturer (Pharmacia), and quantified by measuring absorbance at 280 nm and comparison with BSA standards. Reactions were performed at 30° C. in 100 μl volume of PTPase buffer containing 25 mM Tris-HCl pH7.0, 50 mM NaCl, 2 mM EDTA and 10 mM dithiothreitol (DTT). Change in absorbance (production of DiFMU, dephosphorylated form of DiFMUP) was followed in a plate-reading visible spectrophotometer at 450 nm.

[2] = biological target: T2, PTP domain of SHP1 fused to GST (Homo sapiens, UniProt P29350); experiment: phosphatase assay with DiFMUP substrate, GST-PTP of SHP1; type: biochemical; conditions: DiFMUP 20 μM, 30° C., pH7.0
T2 construct: The PTP domains of SHP2 and SHP1 fused to glutathione-S-transferase (GST-PTPs) were expressed in E. coli; GST (N); made in house; host or cells: E. coli
T2 sequence (P29350 244-515 limits assumed): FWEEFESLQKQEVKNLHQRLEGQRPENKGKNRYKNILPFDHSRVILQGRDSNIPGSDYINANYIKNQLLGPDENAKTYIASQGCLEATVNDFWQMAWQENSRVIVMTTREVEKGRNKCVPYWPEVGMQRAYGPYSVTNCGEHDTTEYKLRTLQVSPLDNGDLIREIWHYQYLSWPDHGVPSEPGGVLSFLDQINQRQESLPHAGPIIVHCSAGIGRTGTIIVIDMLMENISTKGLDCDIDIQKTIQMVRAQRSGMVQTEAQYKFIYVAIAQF
Protocol: as §1

[3] = tested on: HER2-positive BT474 breast cancer cell line; experiment: 2D culture cell growth and cell death, BT474; type: cell-based; conditions: BT474, 2D culture
Protocol: Therefore, the anti-cancer activity of CNBDA was tested in breast cancer cells under 2-dimensional (culture plates), soft agar, and suspension cultures. Because SHP2 is an essential downstream mediator of receptor tyrosine kinase (RTK) signaling, including HER2 and HER1 [24, 25], breast cancer cells that harbor dysregulated RTK and SHP2 signaling were chosen for testing the effect of CNDBA. Accordingly, the BT474 cell line that overexpress the human epidermal growth factor receptor 2 (HER2) and the MDA-MB468 cell line that overexpress HER1 (also known as EGFR) were used. The non-transformed MCF-10A breast epithelial cells were used as a “normal” control in these studies. The BT474 cells were grown in RPMI 1640, while the MDA-MB468 cells were grown in Dulbecco's Modified Eagle's Medium (DMEM), both supplemented with 10% fetal calf serum. On the other hand, the MCF-10A cells were grown in DMEM supplemented with […] recombinant human insulin, 20 ng/ml EGF (PeproTech), […] hydrocortisone, 100 ng/ml cholera toxin (Sigma) and 5% horse serum, as described previously. All cells were grown in a 37° C. incubator supplied with 5% CO2. In the 2D culture studies, cells were treated with vehicle alone (PBS: phosphate buffered saline) or three different concentration of CNBDA. When the density of cells reached approximately 30%, each plate was treated with vehicle alone (placebo) or the indicated concentrations of CNBDA. In the HER2-positive BT474 breast cancer cell line, CNBDA suppressed cell growth at the lowest concentration used (100 ng/ml) as determined by absence of gradual increase in cell density (FIG. 6A). But, at the 72 hour time point, it was possible to see signs of cell death as evidenced by shrinkage in the extended patchy growth property of these cells. At 500 ng/ml and higher concentrations, CNBDA induced cell death within 24 hours which became more evident gradually.
At the lowest concentration used, CNBDA was able to block cell growth and induction of cell death was apparent only after 48 hours. […]

[4] = tested on: EGFR-amplified MDA-MB468 basal-like breast cancer cell line; experiment: 2D culture cell growth and cell death, MDA-MB468; type: cell-based; conditions: MDA-MB468, 2D culture
Protocol: (§2) Therefore, the anti-cancer activity of CNBDA was tested in breast cancer cells under 2-dimensional (culture plates), soft agar, and suspension cultures. Because SHP2 is an essential downstream mediator of receptor tyrosine kinase (RTK) signaling, including HER2 and HER1 [24, 25], breast cancer cells that harbor dysregulated RTK and SHP2 signaling were chosen for testing the effect of CNDBA. Accordingly, the BT474 cell line that overexpress the human epidermal growth factor receptor 2 (HER2) and the MDA-MB468 cell line that overexpress HER1 (also known as EGFR) were used. The non-transformed MCF-10A breast epithelial cells were used as a “normal” control in these studies. The BT474 cells were grown in RPMI 1640, while the MDA-MB468 cells were grown in Dulbecco's Modified Eagle's Medium (DMEM), both supplemented with 10% fetal calf serum. On the other hand, the MCF-10A cells were grown in DMEM supplemented with […] recombinant human insulin, 20 ng/ml EGF (PeproTech), […] hydrocortisone, 100 ng/ml cholera toxin (Sigma) and 5% horse serum, as described previously. All cells were grown in a 37° C. incubator supplied with 5% CO2. […] In the HER2-positive BT474 breast cancer cell line, CNBDA suppressed cell growth at the lowest concentration used (100 ng/ml) as determined by absence of gradual increase in cell density (FIG. 6A). […]

[5] = tested on: non-tumorigenic MCF-10A breast epithelial cells; experiment: 2D culture cell growth, MCF-10A normal control; type: cell-based
Protocol: as §2

BT474 cells [6] = experiment: soft agar anchorage-independent growth, BT474; type: cell-based
Protocol: (§3) Next, the efficacy of CNBDA was evaluated by the soft agar assay, a technique commonly used to determine ability of cells to grow in an anchorage-independent manner, one of the hall marks of a cancer cell. The HER2-positive BT474 and the HER1-positive MDA-MB468 cells were seeded in soft agar, treated with placebo or CNBDA at variable concentrations, cultured for 10 days, and their ability to form colonies was monitored by observation under a microscope. […] While the placebo-treated BT474 and MDA-MB468 cells formed larger and numerous colonies in 10 days, the CNBDA-treated counterparts formed smaller and fewer ones (FIG. 6B). In addition, the concentration of CNBDA that abolished colony formation in soft agar was at least 4-fold lower than the amount that caused cell death in 2D cultures in both cell lines (compare FIGS. 6A and 6B).
(§4) Note than the number and size of colonies decreases as the concentration of CNBDA increases. Also note that the concentration of CNBDA that abolished colony formation in the HER2-positive BT474 breast cancer cell line is 2-fold lower than the amount used in the MDA-MB468 cells.

MDA-MB468 cells [7] = experiment: soft agar anchorage-independent growth, MDA-MB468; type: cell-based
Protocol: as §3, §4

BT474 cells [8] = experiment: mammosphere formation in suspension culture, BT474; type: cell-based
Protocol: (§5) Finally, the effect of CNBDA on the above mentioned breast cancer cells (BT474 and MDA-MB468) was evaluated by the mammosphere formation assay in which cells with stem-like properties (including cancer stem cells) only can survive and form these structures. Briefly, cells were cultured in ultra-low adherence plates (1×10^6 cells per 6 cm plate) in a medium containing serum-free DMEM, 1 μg/ml hydrocortisone, 10 μg/ml insulin, 10 ng/ml EGF, 10 ng/ml FGF, 5 ng/ml heparin, and B27 (Invitrogen). After 10 days of culture, primary mammosphere formation was determined by observation under a microscope at which time pictures of mammospheres was taken at 4×objective. Next, the primary mammospheres were collected by centrifugation at 1000 rpm, dissociated to single cells by trypsination and pipetting, and re-cultured under same conditions to observe effect of SHP2 silencing on secondary mammosphere-forming capacity. Pictures of secondary cultures also were taken after 10 days at 4×objective. […] Similar to the anchorage-independent growth studies, the concentration of CNBDA that led to exhaustion of mammosphere formation was 4-5 fold lower than the amount needed for cell killing in the 2D cultures.
(§6) Note than the number and size of mammospheres decreases as the concentration of CNBDA increases.

MDA-MB468 cells [9] = experiment: mammosphere formation in suspension culture, MDA-MB468; type: cell-based
Protocol: as §5, §6

CCCCCCCCCOc1c(CCCC(=O)O)cc(-c2ccc(C(=O)O)cc2)cc1CCCC(=O)O [CNBDA]
mode of SHP2 inhibition [1]: competitive SHP2 inhibitor
IC50 ([1]; DiFMUP 20 μM, 30° C., pH7.0): 12 µM
selectivity for SHP2 over SHP1 ([1]; from IC50 values): 10 fold
IC50 [2]: 122 µM
concentration that induced cell death within 24 hours [3]: ≥ 500 ng/mL
time at which cell death became apparent at the lowest concentration ([3]; 100 ng/ml): 72 h and > 48 h
concentration that suppressed cell growth (lowest used) ([3]; absence of increase in cell density): 100 ng/mL
concentration showing effect, relative to BT474 cells [4]: double the concentration
minimum concentration needed to induce cell death after 48 hours ([4]; pilot studies): 1 µg/mL
effect on cell growth and cell death at the higher concentration used ([5]; 6 μg/ml): did not cause a significant decrease in cell growth or induce cell death
effect on cell growth ([5]; 2D culture): very little effect
concentration abolishing colony formation, fold lower than amount causing cell death in 2D culture (BT474 cells [6]; BT474): at least 4 fold
colony formation in soft agar (BT474 cells [6]; BT474, 10 days, concentration dependent): suppression of colony formation
concentration abolishing colony formation in BT474, fold lower than in MDA-MB468 (BT474 cells [6]; soft agar): 2 fold
concentration abolishing colony formation, fold lower than amount causing cell death in 2D culture (MDA-MB468 cells [7]; MDA-MB468): at least 4 fold
colony formation in soft agar (MDA-MB468 cells [7]; MDA-MB468, 10 days, concentration dependent): suppression of colony formation
concentration exhausting mammosphere formation, fold lower than amount needed for cell killing in 2D cultures (BT474 cells [8]; BT474): 4-5 fold
mammosphere formation (BT474 cells [8]; BT474, suspension culture, concentration dependent): suppressed mammosphere formation
concentration abolishing mammosphere formation in BT474, fold lower than in MDA-MB468 (BT474 cells [8]; suspension culture): 2 fold
concentration exhausting mammosphere formation, fold lower than amount needed for cell killing in 2D cultures (MDA-MB468 cells [9]; MDA-MB468): 4-5 fold
mammosphere formation (MDA-MB468 cells [9]; MDA-MB468, suspension culture, concentration dependent): suppressed mammosphere formation
